# From patent US7018396B2, “Method of treating acne” (New England Medical Center Hospitals, Inc., priority 2001, dated 2006)
# System: sebaceous glands present in skin of the hamster ear
# Assay: Hamster ear model: topical uptake of ICG into sebaceous glands (white light and fluorescence micrographs)
# Format: in vivo
# Settings: 24 hours, 810 nm illumination, 840 nm bandpass filter
# Description: A chromophore is considered “selectively introduced” to sebaceous glands according to the invention if greater than or equal to about 90% of the chromophore remaining associated with the skin after removal of excess chromophore preparation from the skin surface is observed in sebaceous glands. The proportion of a particular chromophore localized to sebaceous glands from a particular chromophore preparation (e.g., chromophore in oil or chromophore in liposomes or lipid suspension) is determined using an appropriate animal model, such as the hamster ear model described herein. Hamsters are known to have sebaceous glands in their ears. These glands are typically on the order of 200 μm in diameter, making them somewhat larger than typical sebaceous glands in humans. Nonetheless, the hamster ear is a convenient and instructive model for human skin and sebaceous glands.
# For example, the non-lipophilic chromophore indocyanine green was introduced to sebaceous glands present in skin of the hamster ear according to the following method. The lipid chromophore suspension was topically applied to hamster ears and allowed to travel into the pores and sebaceous glands for 24 hours. After this time, the hamsters were euthanized and their ears were examined for evidence of ICG in the sebaceous glands. […] ICG fluorescence (840 nm) is stimulated by irradiation with 810 nm light. […]
structure (smiles),measurement,value
CC1(C)C(/C=C/C=C/C=C/C=C2\N(CCCCS(=O)(=O)O)c3ccc4ccccc4c3C2(C)C)=[N+](CCCCS(=O)(=O)[O-])c2ccc3ccccc3c21 [indocyanine green],localization of chromophore in skin,present in the sebaceous glands but not in the tissue between the glands
